# Where a name gives a salt, the structure may show the parent alone.
# Test: in vitro
# Details: rat, gh3-tre-luc cells, AC50 (uM) modified / 1000
row,Compound,CC50 at 24 h [µM]
1,"NC(N)=NCCCCN=C(N)N [1,1'-Tetramethylenediguanidine sulfate]",> 50
2,c1ccc2c(c1)cc1ccc3cccc4ccc2c1c34 [Benzo(a)pyrene],> 90
3,CC(C)Nc1nc(N)nc(Cl)n1 [Deethylatrazine],> 90
4,COc1ccc([C@@H]2Sc3ccccc3N(CCN(C)C)C(=O)[C@@H]2OC(C)=O)cc1 [(+)-Diltiazem],22.9
5,CCCCCCC[N+](CC)(CC)CCCCc1ccc(Cl)cc1 [Clofilium tosylate],> 20
6,OC(Cn1cncn1)(c1ccc(F)cc1)c1ccccc1F (stereo not shown) [Flutriafol],> 90
7,O=C(O)CP(=O)(O)O [Phosphonoacetic acid],> 50
8,CCOC1Oc2ccc(OS(C)(=O)=O)cc2C1(C)C (stereo not shown) [Ethofumesate],> 90
9,COC(=O)c1ccc(C(=O)OC)cc1 [Dimethyl terephthalate],> 90
10,"Cc1ccc(C)c(C)c1 [1,2,4-Trimethylbenzene]",> 90
11,C/C(=C\c1csc(C)n1)[C@@H]1C[C@@H]2O[C@]2(C)CCC[C@H](C)[C@H](O)[C@@H](C)C(=O)C(C)(C)[C@@H](O)CC(=O)O1 [Epothilone B],0.00955
12,COCCCC/C(=N\OCCN)c1ccc(C(F)(F)F)cc1 [Fluvoxamine],15
13,Nc1ccc2c(c1)C(=O)c1ccccc1C2=O [2-Aminoanthraquinone],> 90
14,CCOC(N)=O [Urethane],> 100
15,"CCN1/C(=C/C=C/c2sc3ccccc3[n+]2CC)Sc2ccccc21 [3,3'-Diethylthiacarbocyanine iodide]",1.67
16,CN(C)C(=O)CCSC(SCCC(=O)O)c1cccc(/C=C/c2ccc3ccc(Cl)cc3n2)c1 (stereo not shown) [MK-571 sodium],28.9
17,Cc1ccc2oc(=O)ccc2c1 [6-Methyl coumarin],> 90
18,O=C(O)c1c(Cl)c(Cl)c(Cl)c(Cl)c1-c1c2cc(I)c(=O)c(I)c-2oc2c(I)c(O)c(I)cc12 [Rose bengal sodium],20.9
19,CC[N+](CC)(CC)CCC(O)(c1ccccc1)C1CCCCC1 (stereo not shown) [Tridihexethyl chloride],> 20
20,CCCCCOC(=O)COc1cc(N2C(=O)C3=C(CCCC3)C2=O)c(F)cc1Cl [Flumiclorac-pentyl],> 90
21,COc1cc([C@H]2Oc3cc([C@H]4Oc5cc(O)cc(O)c5C(=O)[C@@H]4O)ccc3O[C@@H]2CO)ccc1O [Silybin],> 90

row,Compound,CC50 at 24 h [µM]
1,O=C(O)C1C(C(=O)O)[C@@]2(Cl)C(Cl)=C(Cl)[C@]1(Cl)C2(Cl)Cl (stereo partly shown) [Chlorendic acid],> 90
2,CC(C)CCCCCCCOP(=O)(Oc1ccccc1)Oc1ccccc1 [Isodecyl diphenyl phosphate],27.3
3,COCCOC(=O)c1ccccc1C(=O)OCCOC [Di(2-methoxyethyl) phthalate],> 90
4,"CC(=O)c1ccc2c(c1)CCCC2 [6-Acetyl-1,2,3,4-tetrahydronaphthalene]",> 90
5,CC1(C)CCC(C)(C)c2cc(C(=O)Nc3ccc(C(=O)O)cc3)ccc21 [AM580],66.2
6,Cc1nnc(SCC2=C(C(=O)O)N3C(=O)[C@@H](NC(=O)Cn4cnnn4)[C@H]3SC2)s1 [Cefazolin],> 50
7,CC(C)CCCC(C)NC(C)C (stereo not shown) [Iproheptine],> 50
8,O=c1ccc2ccccc2o1 [Coumarin],> 90
9,Cc1nc([N+](=O)[O-])cn1-c1ccc([N+](=O)[O-])cc1 [Nitrefazole],> 50
10,CCCCCCCCCCCCCCCC(=O)OC[C@H](COP(=O)([O-])OCC[N+](C)(C)C)OC(=O)CCCCCCCCCCCCCCC [Colfosceril palmitate],> 50
11,"CC1(C)C(=O)NC(=O)NC1=O [5,5-Dimethylbarbituric acid]",> 90
12,"COc1ccc(OC)c(NC(=O)CC(C)=O)c1 [N-(2,5-Dimethoxyphenyl)-3-oxobutanamide]",> 90
13,CC(=O)O[C@H](CC(=O)[O-])C[N+](C)(C)C [Acetyl-L-carnitine hydrochloride],> 90
14,COc1c2occc2c(OC)c2c(=O)cc(C)oc12 [Khellin],> 20
15,CCN(Cc1cccc(S(=O)(=O)O)c1)c1ccccc1 [3-((Ethylphenylamino)methyl)benzenesulfonic acid],> 90
16,O=C(O)C1(C(=O)Nc2ccc(Cl)cc2Cl)CC1 [Cyclanilide],> 90
17,COC(=O)C(C)O (stereo not shown) [Methyl 2-hydroxypropanoate],> 90
18,O=C1CSC2(CCN(CCCN3c4ccccc4Sc4ccc(Cl)cc43)CC2)N1 [Spiclomazine hydrochloride],6.81
19,CCC[C@@H]1C[C@@H](C(=O)N[C@@H]([C@H]2O[C@H](SC)[C@H](O)[C@@H](O)[C@H]2O)[C@@H](C)O)N(C)C1 [Lincomycin hydrochloride],> 50
20,"COc1cc2nc(O)nc(O)c2cc1OC [6,7-Dimethoxyquinazoline-2,4(1H,3H)-dione]",> 20
21,CCCCCCCOC(=O)CCC [Heptyl butanoate],> 90

row,Compound,CC50 at 24 h [µM]
1,COc1ccc(N)c([N+](=O)[O-])c1 [4-Methoxy-2-nitroaniline],> 90
2,O=C1O[C@H](CO)[C@@H](O)[C@H](O)[C@H]1O [Gluconolactone],> 90
3,CCC1(c2ccc(N)cc2)CCC(=O)NC1=O (stereo not shown) [Aminoglutethimide],> 50
4,C#CC(C)(C)NC(=O)c1cc(Cl)cc(Cl)c1 [Propyzamide],> 90
5,C/C=C/C(=O)CC [4-Hexen-3-one],> 20
6,CN(C)c1cccc(O)c1 [3-Dimethylaminophenol],> 90
7,"CC1=C(CC=O)C(C)(C)CCC1 [2,6,6-Trimethyl-1-cyclohexene-1-acetaldehyde]",> 90
8,CCC(=O)C(CC(C)N(C)C)(c1ccccc1)c1ccccc1 (stereo not shown) [Methadone hydrochloride],28.5
9,O=C(CCNNC(=O)c1ccncc1)NCc1ccccc1 [Nialamide],> 50
10,N[C@H](CC(=O)O)C(=O)O [D-Aspartic acid],> 50
11,CCN(Cc1c(F)cccc1Cl)c1c([N+](=O)[O-])cc(C(F)(F)F)cc1[N+](=O)[O-] [Flumetralin],> 90
12,"C=CC(C)CCCC(C)(C)O (stereo not shown) [1,1,5-Trimethyl-6-heptenol]",> 90
13,C[C@]12C=CC(=O)C=C1CC[C@@H]1[C@@H]2C(=O)C[C@@]2(C)[C@H]1CC[C@]2(O)C(=O)CO [Prednisone],> 90
14,"O=S(=O)(Cl)c1c(Cl)cccc1Cl [2,6-Dichlorobenzenesulfonylchloride]",> 90
15,"CCOc1cc(OCC)c(C(C)=O)cc1OCC [2,4,5-Triethoxyacetophenone]",35.3
16,CCn1nc(C)c2c1C(=O)NCC(c1ccc(O)cc1)=N2 [PharmaGSID_47263],> 90
17,CN1C(=O)/C(=N\NC(N)=S)c2ccccc21 [Methisazone],34.2
18,CCCCCCCCCC(C)C=O (stereo not shown) [2-Methylundecanal],> 90
19,CCCCCCCCOC(=O)c1ccc(C(=O)OCCCCCCCC)c(C(=O)OCCCCCCCC)c1 [Trioctyl trimellitate],> 90
20,CCN(CC)C(=O)N(CC)CC [Tetraethylurea],> 90
21,CN1CCN(c2cc3c(nn2)Oc2ccccc2N3C)CC1 [Pipofezine],> 50

row,Compound,CC50 at 24 h [µM]
1,"C1COCO1 [1,3-Dioxolane]",> 90
2,CCOC(=O)CC(O)(CC(=O)OCC)C(=O)OCC [Triethyl citrate],> 90
3,C[C@H]1COc2c(C3(N)CC3)c(F)cc3c(=O)c(C(=O)O)cn1c23 [Pazufloxacin],> 50
4,N=C(N/N=C/c1ccc(Cl)cc1)N/N=C/c1ccc(Cl)cc1 [Robenidine],46.1
5,CCCCCCCCCCCCOC(=O)c1ccc(O)cc1 [Dodecylparaben],26
6,CN(C)CCC#N [3-Dimethylaminopropionitrile],> 90
7,O[C@@H](CNC[C@H](O)[C@H]1CCc2cc(F)ccc2O1)[C@@H]1CCc2cc(F)ccc2O1 (racemic) [rac Nebivolol hydrochloride],7.99
8,CC1=C(/C=C/C(C)=C/C=C/C(C)=C/C=C/C=C(C)/C=C/C=C(C)/C=C/C2=C(C)CCCC2(C)C)C(C)(C)CCC1 [beta-Carotene],> 50
9,CC1=CC=C(C(C)C)CC1 [alpha-Terpinene],> 90
10,CCOC(=O)CN[C@@H](C(=O)N1CC[C@H]1C(=O)NCc1ccc(/C(N)=N\O)cc1)C1CCCCC1 [Ximelagatran],> 50
11,CC(=O)Nc1ccc(NC(=S)NC(=O)c2ccc(C(C)(C)C)cc2)cc1 [Tenovin-1],7.56
12,COC1=C(C(=O)O)N2C(=O)[C@@H](NC(=O)[C@H](N)C3=CCC=CC3)[C@H]2SC1 [Cefroxadine],> 50
13,CC(C)c1ccccc1 [Cumene],> 100
14,"c1ccc(-c2ccc(-c3ccccc3)cc2)cc1 [1,1':4',1''-Terphenyl]",> 20
15,"C(/C=C/C=C/Nc1ccccc1)=Nc1ccccc1 [N,N'-Penta-1,3-dien-1-yl-5-ylidenedianiline hydrochloride]",> 90
16,Cc1ccc(O)c(C(=O)c2ccccc2)c1 [2-Hydroxy-5-methylbenzophenone],> 90
17,CCC1(CC)C(=O)NC(=O)NC1=O [Sodium barbital],> 90
18,CCCc1ncc(C[n+]2ccccc2C)c(N)n1 [Amprolium hydrochloride],> 20
19,"Clc1ccc(Cl)c(Cl)c1 [1,2,4-Trichlorobenzene]",> 90

# Same assay, conditions: rat, gh3-tre-luc cells, AC50 (uM) modified / 1000, Tox21_110001=Tox21_111806; viability, 1 nM T3 present, 24 h
row,Compound,CC50 at 24 h [µM]
1,C[C@@H](Cc1ccccc1)NCc1ccccc1Cl [Clobenzorex hydrochloride],> 50

# Same assay, conditions: rat, gh3-tre-luc cells, AC50 (uM) modified / 1000, Tox21_110001=Tox21_112097; viability, 1 nM T3 present, 24 h
row,Compound,CC50 at 24 h [µM]
1,Oc1ccccc1-c1ccccc1 [Sodium 2-phenylphenate tetrahydrate],> 50

# Same assay, conditions: rat, gh3-tre-luc cells, AC50 (uM) modified / 1000, Tox21_110001=Tox21_200855; viability, 1 nM T3 present, 24 h
row,Compound,CC50 at 24 h [µM]
1,CC(C)OS(C)(=O)=O [Isopropyl methanesulfonate],> 90

# Source: PMC6792352, “Limited Chemical Structural Diversity Found to Modulate Thyroid Hormone Receptor in the Tox21 Chemical Library” (Environmental Health Perspectives, 2019)
